Results reported in US8778966B2, “Quinolinone derivatives as PARP and tank inhibitors” (Janssen Pharmaceutica, NV, priority 2007, dated 2014).
Like-named read-outs stand apart in the source and are kept apart here.

Columns and labels:
Human PARP-1 enzyme = target: T1, Human PARP-1 enzyme (Homo sapiens, UniProt P09874); assay: In vitro Scintillation Proximity Assay (SPA) for PARP-1 inhibitory activity; type: biochemical; conditions: read-out: in vitro SPA assay PARP-1 pIC50 (converted)
T1 construct: purchased Trevigen
T1 sequence (P09874 whole entry): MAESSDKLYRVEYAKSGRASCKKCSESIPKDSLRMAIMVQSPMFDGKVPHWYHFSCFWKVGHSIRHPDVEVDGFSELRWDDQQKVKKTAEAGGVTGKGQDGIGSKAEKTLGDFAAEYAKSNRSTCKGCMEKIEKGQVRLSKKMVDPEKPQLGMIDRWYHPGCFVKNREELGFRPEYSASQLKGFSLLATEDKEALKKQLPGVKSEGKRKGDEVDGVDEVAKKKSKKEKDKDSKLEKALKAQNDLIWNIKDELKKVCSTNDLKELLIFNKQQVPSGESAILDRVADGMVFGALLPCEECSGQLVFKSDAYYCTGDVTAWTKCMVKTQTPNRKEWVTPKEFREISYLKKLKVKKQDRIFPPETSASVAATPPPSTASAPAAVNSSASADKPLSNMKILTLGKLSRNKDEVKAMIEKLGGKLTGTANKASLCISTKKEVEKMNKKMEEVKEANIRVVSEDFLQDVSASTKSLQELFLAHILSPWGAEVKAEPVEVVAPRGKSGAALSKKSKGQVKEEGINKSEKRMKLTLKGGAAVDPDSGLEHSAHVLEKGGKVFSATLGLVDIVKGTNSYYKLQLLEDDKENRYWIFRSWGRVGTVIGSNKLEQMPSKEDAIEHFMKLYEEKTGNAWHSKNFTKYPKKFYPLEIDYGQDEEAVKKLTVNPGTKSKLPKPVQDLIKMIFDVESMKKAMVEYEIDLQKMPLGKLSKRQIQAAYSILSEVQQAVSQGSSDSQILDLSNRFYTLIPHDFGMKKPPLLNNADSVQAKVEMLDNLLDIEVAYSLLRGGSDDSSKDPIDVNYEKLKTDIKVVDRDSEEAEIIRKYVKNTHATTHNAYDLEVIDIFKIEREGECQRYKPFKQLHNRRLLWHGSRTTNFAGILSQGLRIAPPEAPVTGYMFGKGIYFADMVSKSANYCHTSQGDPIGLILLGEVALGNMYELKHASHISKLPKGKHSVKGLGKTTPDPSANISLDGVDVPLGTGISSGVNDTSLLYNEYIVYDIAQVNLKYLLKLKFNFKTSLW
Summary of the method: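 SPA assay: nicked-DNA-activated PARP-1 (0.1–0.2 μg/ml) ADP-ribosylates biotinylated histones (2 μg/ml) using [3H]-NAD+, 20 min at RT in Tris pH 8/DTT/MgCl2, stopped with 2 mM NAD+. Blank-subtracted cpm expressed as % control; IC50 by linear interpolation, reported as pIC50 (10−5 to 3×10−9 M tested).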

PC-3 cells = assay: Antiproliferative activity, Alamar Blue assay, PC-3 cells; type: cell-based, human; conditions: for IC50: Homo sapiens, PC-3, PC3 cells, read-out: PC3 antiproliferative activity pIC50 (converted)
Summary of the method: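 Resazurin-based fluorescence (540 nm ex/590 nm em) measured after 4-day compound treatment plus 24 hrs dye incubation at 37° C. Cells plated at 4.5×10^3 cells/ml, adhered 24 hr first. pIC50 from probit-derived IC50 on % viable cells versus untreated, triplicate wells.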

IC50 (Human PARP-1 enzyme) [nM] | PC3 antiproliferative activity pIC50 (PC-3 cells; PC3 cells, Alamar Blue) | IC50 (PC-3 cells; Alamar Blue) [nM] | IC50 (PC-3 cells) [nM] | SMILES
50.1 | – | – | – | CCc1cc2ccc(C(C)(C#N)Cc3cccc(C#N)n3)cc2[nH]c1=O (single isomer, unassigned) [Compound 206]
39.8 | 6.8 | – | – | CCc1cc2ccc(C(C)(C#N)Cc3cccc(C#N)n3)cc2[nH]c1=O (single isomer, unassigned) [Compound 207]
50.1 | – | 316 | – | CCc1cc2ccc([C@@](C)(C#N)Cc3cccc(N(C)C)c3)cc2[nH]c1=O (single isomer, unassigned) [Compound 258]
79.4 | – | 10000 | – | CCc1cc2ccc([C@](C)(C#N)Cc3cccc(N(C)C)c3)cc2[nH]c1=O (single isomer, unassigned) [Compound 259]
631 | – | 5010 | – | CCC[C@@](C#N)(Cc1ccccc1)c1ccc2cc(CC)c(=O)[nH]c2c1 (single isomer, unassigned) [Compound 263]
398 | – | 10000 | – | CCC[C@](C#N)(Cc1ccccc1)c1ccc2cc(CC)c(=O)[nH]c2c1 (single isomer, unassigned) [Compound 264]
50.1 | – | 10000 | – | CCc1cc2ccc([C@@](C)(C#N)Cc3cccc(C#N)c3)cc2[nH]c1=O (single isomer, unassigned) [Compound 268]
31.6 | – | 398 | – | CCc1cc2ccc([C@](C)(C#N)Cc3cccc(C#N)c3)cc2[nH]c1=O (single isomer, unassigned) [Compound 269]
398 | – | 10000 | – | CCc1cc2ccc([C@](C)(C#N)C[C@@H]3Cc4cc(C)ccc4O3)cc2[nH]c1=O (single isomer, unassigned) [Compound 400]
126 | – | 10000 | – | C#Cc1cccc(C[C@](C)(C#N)c2ccc3cc(CC)c(=O)[nH]c3c2)c1 [Compound 2]
79.4 | – | 100 | – | C#Cc1cccc(C[C@@](C)(C#N)c2ccc3cc(CC)c(=O)[nH]c3c2)c1 [Compound 3]
501 | – | – | 5010 | CCc1cc2ccc(C(C#N)(CC)Cc3ccccc3)cc2[nH]c1=O (centres unmarked) [Compound 32]
1260 | – | – | 2510 | COc1ccccc1-c1nc(CC(C)(C#N)c2ccc3cc(C)c(=O)[nH]c3c2)no1 (centres unmarked) [Compound 33]
794 | – | – | 631 | Cc1cc2ccc(C(C)(C#N)Cc3cccc(C#N)c3)cc2[nH]c1=O (centres unmarked) [Compound 34]
501 | – | – | > 10000 | Cc1cc2ccc([C@@](C)(C#N)Cc3cccc(C#N)c3)cc2[nH]c1=O [Compound 35]
1580 | – | – | 200 | Cc1cc2ccc([C@](C)(C#N)Cc3cccc(C#N)c3)cc2[nH]c1=O [Compound 36]
2000 | – | – | 398 | Cc1cc2ccc(C(C)(C#N)Cc3cccc(Cl)c3)cc2[nH]c1=O (centres unmarked) [Compound 37]
> 10000 | – | – | > 10000 | CC(C)c1cc2ccc(C(C)(C#N)Cc3ccccc3)cc2[nH]c1=O (centres unmarked) [Compound 38]
7940 | – | – | > 10000 | CC(=O)c1cc2ccc(C(C)(C#N)Cc3ccccc3)cc2[nH]c1=O (centres unmarked) [Compound 39]
100 | – | 6310 | – | CCc1cc2ccc(C(C)(C#N)Cc3cccc(OC[C@@H](O)CO)c3)cc2[nH]c1=O (some centres unmarked) [Compound 56]
79.4 | – | 3160 | – | CCc1cc2ccc(C(C)(C#N)Cc3cccc(CCC#N)c3)cc2[nH]c1=O (centres unmarked) [Compound 169]

IC50 (Human PARP-1 enzyme) [nM] | PC3 antiproliferative activity pIC50 (PC-3 cells; PC3 cells, Alamar Blue) | IC50 (PC-3 cells; Alamar Blue) [nM] | IC50 (PC-3 cells) [nM] | SMILES
79.4 | – | 10000 | – | CCc1cc2ccc(C(C)(C#N)Cc3cccc(CNS(C)(=O)=O)c3)cc2[nH]c1=O (centres unmarked) [Compound 170]
100 | – | 631 | – | C=Cc1cccc(CC(C)(C#N)c2ccc3cc(CC)c(=O)[nH]c3c2)c1 (centres unmarked) [Compound 172]
200 | – | 1000 | – | CCc1cc2cc(F)c(C(C)(C#N)Cc3cccc(C#N)c3)cc2[nH]c1=O (centres unmarked) [Compound 175]
100 | – | 3980 | – | CCc1c(C)c2ccc(C(C)(C#N)Cc3cccc(C#N)c3)cc2[nH]c1=O (centres unmarked) [Compound 181]
158 | – | 5010 | – | CCc1cc2cc(OCCOC)c(C(C)(C#N)Cc3cccc(C#N)c3)cc2[nH]c1=O (centres unmarked) [Compound 182]
63.1 | – | 316 | – | CCc1cc2ccc(C(C)(C#N)Cc3cccc(C#CCO)c3)cc2[nH]c1=O (centres unmarked) [Compound 183]
63.1 | – | 7940 | – | CCc1cc2ccc(C(F)(C#N)Cc3ccccc3)cc2[nH]c1=O (centres unmarked) [Compound 187]
398 | – | 3160 | – | CCc1cc2ccc(C(C)(C#N)CN(C)Cc3ccccc3)cc2[nH]c1=O (centres unmarked) [Compound 189]
126 | – | 2000 | – | CCc1cc2ccc(C(C)(C#N)C(C)c3ccccc3)cc2[nH]c1=O (centres unmarked) [Compound 198]
79.4 | – | 10000 | – | CCc1cc2ccc([C@](C)(C#N)[C@@H](C)c3ccccc3)cc2[nH]c1=O [Compound 199]
251 | – | 1000 | – | CCc1cc2ccc([C@](C)(C#N)[C@H](C)c3ccccc3)cc2[nH]c1=O [Compound 200]
126 | – | 501 | – | C#Cc1cccc(CC(C)(C#N)c2ccc3cc(CC)c(=O)[nH]c3c2)n1 (centres unmarked) [Compound 211]
63.1 | – | 501 | – | CCc1cc2ccc(C(C)(C#N)Cc3cccc(N(C)C)n3)cc2[nH]c1=O (centres unmarked) [Compound 213]
50.1 | – | 631 | – | CCc1cc2ccc(C(C)(C#N)Cc3cccc(I)n3)cc2[nH]c1=O (centres unmarked) [Compound 214]
398 | – | 6310 | – | CCOC(=O)c1cccc(CC(C)(C#N)c2ccc3cc(CC)c(=O)[nH]c3c2)n1 (centres unmarked) [Compound 215]
398 | – | 10000 | – | CCc1cc2ccc(C(C)(C#N)Cc3cccc(COC)n3)cc2[nH]c1=O (centres unmarked) [Compound 216]
100 | – | 2510 | – | CCc1cc2ccc(C(C)(C#N)Cc3cccc(OCCOC)n3)cc2[nH]c1=O (centres unmarked) [Compound 219]
79.4 | – | 1000 | – | CCc1cc2ccc(C(C)(C#N)Cc3cccc(CN)n3)cc2[nH]c1=O (centres unmarked) [Compound 221]
79.4 | – | 501 | – | CCc1cc2ccc(C(C)(C#N)Cc3cccc(OCCO)c3)cc2[nH]c1=O (centres unmarked) [Compound 262]
501 | – | 3980 | – | CCc1cc2ccc(C(C)(C#N)CCOc3cccc(C(F)(F)F)c3)cc2[nH]c1=O (centres unmarked) [Compound 274]
50.1 | – | 501 | – | CCc1cc2ccc(C(C)(C#N)Cc3cccc(CN)c3)cc2[nH]c1=O (centres unmarked) [Compound 290]

IC50 (Human PARP-1 enzyme) [nM] | PC3 antiproliferative activity pIC50 (PC-3 cells; PC3 cells, Alamar Blue) | IC50 (PC-3 cells; Alamar Blue) [nM] | IC50 (PC-3 cells) [nM] | SMILES
63.1 | – | 501 | – | CCc1cc2ccc(C(C)(C#N)Cc3cccc(/C=C/S(C)(=O)=O)c3)cc2[nH]c1=O (centres unmarked) [Compound 292]
398 | – | 6310 | – | CCc1c(Cl)c2ccc(C(C)(C#N)Cc3cccc(C#N)c3)cc2[nH]c1=O (centres unmarked) [Compound 293]
251 | – | 10000 | – | CCc1cc2cc(OC)c(C(C)(C#N)Cc3ccccc3)cc2[nH]c1=O (centres unmarked) [Compound 294]
79.4 | – | 1000 | – | CCc1cc2ccc(C(C)(C#N)Cc3cccc(C#CCOC)c3)cc2[nH]c1=O (centres unmarked) [Compound 297]
501 | – | 6310 | – | CCc1cc2ccc(C(C)(C#N)Cc3cccc(C#CCN(C)C)c3)cc2[nH]c1=O (centres unmarked) [Compound 298]
100 | – | 10000 | – | CCc1cc2ccc(C(C)(C#N)CNCc3cccc(C#N)c3)cc2[nH]c1=O (centres unmarked) [Compound 301]
79.4 | – | 2000 | – | CCc1cc2ccc(C(C)(C#N)Cc3cnc(Cl)nc3Cl)cc2[nH]c1=O (centres unmarked) [Compound 306]
631 | – | 316 | – | COc1cc(OC)nc(CC(C)(C#N)c2ccc3cc(C)c(=O)[nH]c3c2)n1 (centres unmarked) [Compound 308]
158 | – | 2000 | – | CCOc1cc(OCC)nc(CC(C)(C#N)c2ccc3cc(CC)c(=O)[nH]c3c2)n1 (centres unmarked) [Compound 309]
100 | – | 631 | – | CCc1cc2ccc(C(C)(C#N)Cc3cccc(Cl)n3)cc2[nH]c1=O (centres unmarked) [Compound 310]
126 | – | 7940 | – | CCc1cc2ccc(C(C)(C#N)Cc3ncc(C)c(OC)c3C)cc2[nH]c1=O (centres unmarked) [Compound 311]
100 | – | 7940 | – | CCc1cc2ccc(C(C)(C#N)Cc3ccc(C)nc3)cc2[nH]c1=O (centres unmarked) [Compound 327]
79.4 | – | 501 | – | CCc1cc2ccc(C(C)(C#N)Cc3cccc(C#N)n3)cc2[nH]c1=O (centres unmarked) [Compound 329]
251 | – | 10000 | – | CCCn1ccnc1CC(C)(C#N)c1ccc2cc(CC)c(=O)[nH]c2c1 (centres unmarked) [Compound 335]
79.4 | – | 2510 | – | CCc1cc2ccc(C(C)(C#N)Cc3ccc4ccccc4n3)cc2[nH]c1=O (centres unmarked) [Compound 336]
398 | – | 5010 | – | CCc1cc2ccc(C(C)(C#N)Cc3nccn3CC)cc2[nH]c1=O (centres unmarked) [Compound 337]
200 | – | 2000 | – | CCc1cc2ccc(C(C)(C#N)Cc3nc4ccccc4n3C)cc2[nH]c1=O (centres unmarked) [Compound 338]
79.4 | – | 2000 | – | CCc1cc2ccc(C(C)(C#N)Cc3cccc(C)n3)cc2[nH]c1=O (centres unmarked) [Compound 343]
63.1 | – | 631 | – | CCc1cc2ccc(C(C)(C#N)Cc3cccc(Br)n3)cc2[nH]c1=O (centres unmarked) [Compound 344]
158 | – | 3980 | – | CCc1cc2ccc(C(C)(C#N)Cc3cccc(CO)n3)cc2[nH]c1=O (centres unmarked) [Compound 345]

SMILES | IC50 (Human PARP-1 enzyme) [nM] | PC3 antiproliferative activity pIC50 (PC-3 cells; PC3 cells, Alamar Blue) | IC50 (PC-3 cells; Alamar Blue) [nM] | IC50 (PC-3 cells) [nM]
CCc1cc2ccc(C(C)(C#N)Cc3cccc(C#C[Si](C)(C)C)n3)cc2[nH]c1=O (centres unmarked) [Compound 210] | 398 | – | 501 | –
